Each structure is given as a SMILES string.

T1 sequence (Q96P20 whole entry): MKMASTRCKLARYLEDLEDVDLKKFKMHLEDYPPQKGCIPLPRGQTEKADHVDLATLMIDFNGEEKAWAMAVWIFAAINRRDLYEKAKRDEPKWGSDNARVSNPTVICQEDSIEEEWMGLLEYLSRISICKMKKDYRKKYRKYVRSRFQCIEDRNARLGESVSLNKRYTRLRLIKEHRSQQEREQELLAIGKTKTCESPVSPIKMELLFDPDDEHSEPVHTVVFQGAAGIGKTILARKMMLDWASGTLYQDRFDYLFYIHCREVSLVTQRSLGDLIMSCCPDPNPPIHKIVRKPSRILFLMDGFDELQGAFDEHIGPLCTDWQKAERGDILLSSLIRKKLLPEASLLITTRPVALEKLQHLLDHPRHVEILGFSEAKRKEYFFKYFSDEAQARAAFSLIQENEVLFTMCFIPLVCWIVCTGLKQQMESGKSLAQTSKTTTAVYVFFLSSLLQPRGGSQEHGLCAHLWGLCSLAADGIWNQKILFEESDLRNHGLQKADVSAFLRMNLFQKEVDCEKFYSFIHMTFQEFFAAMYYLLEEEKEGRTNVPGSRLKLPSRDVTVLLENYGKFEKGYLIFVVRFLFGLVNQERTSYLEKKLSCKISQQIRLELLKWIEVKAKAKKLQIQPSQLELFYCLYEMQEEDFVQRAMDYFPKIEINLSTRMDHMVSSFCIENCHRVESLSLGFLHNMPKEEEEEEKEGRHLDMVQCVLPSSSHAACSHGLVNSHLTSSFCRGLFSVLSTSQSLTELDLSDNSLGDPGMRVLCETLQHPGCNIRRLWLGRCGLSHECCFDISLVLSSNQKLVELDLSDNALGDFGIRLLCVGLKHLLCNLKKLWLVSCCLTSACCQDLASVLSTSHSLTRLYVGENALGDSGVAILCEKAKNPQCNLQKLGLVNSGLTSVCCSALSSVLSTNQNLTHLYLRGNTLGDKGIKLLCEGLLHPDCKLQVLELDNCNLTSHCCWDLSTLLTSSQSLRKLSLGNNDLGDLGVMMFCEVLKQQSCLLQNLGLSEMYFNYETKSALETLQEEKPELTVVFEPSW

The experiment addresses T1, hNLRP3 (Homo sapiens, UniProt Q96P20).
T1 construct: THP-1 cells were purchased from the American Type Culture Collection; host or cells: THP-1 cells, PMA-differentiated
The experiment in a line: Measurement of IL-1β production in PMA-differentiated THP-1 cells (hNLRP3 agonist; ELISA, alternative and hTRF procedures). The format is cell-based. In short, it runs like this: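 Supernatant IL-1β was quantified by ELISA in two procedures and by hTRF (kit antibodies at 1:40) in a third. THP-1 cells were first differentiated with PMA ([…] for 24 h; 20 μg/ml overnight; 50 ng/ml overnight), then incubated in 2% FBS RPMI with compounds for 4 h, 2 h and 2 h, respectively, at 1% DMSO or a 10 μM top concentration.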
For orientation: EC50 means the midpoint of the concentration-response curve. A high value points to a need for much substance. Molecule `CCC(=O)NCc1nc2c(N)nc3cc(-c4cc[nH]n4)ccc3c2[nH]1` [Compound 111] gave an EC50 of 720 nM.

`CCN(Cc1nc2c(N)nc3cc(-c4cc[nH]n4)ccc3c2[nH]1)C(=O)c1nccs1` [Compound 114] showed an EC50 of 1040 nM.

Consider `CN(Cc1nc2c(N)nc3cc(-c4cc[nH]n4)ccc3c2[nH]1)S(C)(=O)=O` [Compound 115], for which a half-maximal effect (EC50) was put at 900 nM.

For the molecule `CC(c1nc2c(N)nc3cc(-n4cccn4)ccc3c2[nH]1)N1CCCC1=O` (stereo not drawn) [Compound 117], the response was half-maximal at 1260 nM (EC50).

For the molecule `CCN(Cc1nc2c(N)nc3cc(-c4cc[nH]n4)ccc3c2[nH]1)C(=O)C1CC1` [Compound 118], it took 1360 nM to reach a half-maximal effect (EC50).

On to `Nc1nc2cc(-c3cccs3)ccc2c2[nH]c(CN3CCCC3=O)nc12` [Compound 309, 1-[(4-amino-7-thiophen-2-yl-1H-imidazo[4,5-c]quinolin-2-yl)methyl]pyrrolidin-2-one], for which a half-maximal response (EC50) required 240 nM. This EC50 lies about 5.7-fold lower than the previous one.

`N#Cc1ccccc1-c1ccc2c(c1)nc(N)c1nc(CN3CCCC3=O)[nH]c12` [Compound 315, 2-[4-amino-2-[(2-oxopyrrolidin-l-yl)methyl]-1H-imidazo[4,5-c]quinolin-7-yl]benzonitrile] showed an EC50 of 1180 nM.

In turn, `Nc1nc2cc(Br)ccc2c2[nH]c(CN3CC(c4ccccc4)CC3=O)nc12` (stereo not drawn) [Compound 316, 1-[(4-amino-7-bromo-1H-imidazo[4,5-c]quinolin-2-yl)methyl]-4-phenylpyrrolidin-2-one] came in with an EC50 of 1100 nM.

With `COc1ncccc1-c1ccc2c(c1)nc(N)c1nc(CN3CCCC3=O)[nH]c12` [Compound 319, 1-[[4-amino-7-(2-methoxypyridin-3-yl)-1H-imidazo[4,5-c]quinolin-2-yl]methyl]pyrrolidin-2-one], the EC50 came to 6200 nM.

As to `Nc1nc2cc(-c3cccnc3Cl)ccc2c2[nH]c(CN3CCCC3=O)nc12` [Compound 320, 1-[[4-amino-7-(2-chloropyridin-3-yl)-1H-imidazo[4,5-c]quinolin-2-yl]methyl]pyrrolidin-2-one], it took 1500 nM to reach a half-maximal effect (EC50).

Regarding `Nc1nc2cc(-c3cnccc3Cl)ccc2c2[nH]c(CN3CCCC3=O)nc12` [Compound 321, 1-[[4-amino-7-(4-chloropyridin-3-yl)-1H-imidazo[4,5-c]quinolin-2-yl]methyl]pyrrolidin-2-one], the EC50 came out at 4500 nM.

The molecule `Nc1nc2cc(-c3ccc(C(F)(F)F)nc3)ccc2c2[nH]c(CN3CCCC3=O)nc12` [Compound 324, 1-[[4-amino-746-(trifluoromethyppyridin-3-yl]-1H-imidazo[4,5-c]quinolin-2-yl]methyl]pyrrolidin-2-one] came in with an EC50 of 6700 nM.

`N#Cc1cncc(-c2ccc3c(c2)nc(N)c2nc(CN4CCCC4=O)[nH]c23)c1` [Compound 326, 5-[4-amino-2-[(2-oxopyrrolidin-l-yl)methyl]-1H-imidazo[4,5-c]quinolin-7-yl]pyridine-3-carbonitrile] had an EC50 of 2700 nM.

Molecule `N#Cc1ccc(-c2ccc3c(c2)nc(N)c2nc(CN4CCCC4=O)[nH]c23)cn1` [Compound 327, 5-[4-amino-2-[(2-oxopyrrolidin-l-yl)methyl]-1H-imidazo[4,5-c]quinolin-7-yl]pyridine-2-carbonitrile] displayed an EC50 of 13000 nM.

The molecule `Nc1nc2cc(-c3cncc(Cl)c3)ccc2c2[nH]c(CN3CCCC3=O)nc12` [Compound 328, 1-[[4-amino-7-(5-chloropyridin-3-yl)-1H-imidazo[4,5-c]quinolin-2-yl]methyl]pyrrolidin-2-one] yielded an EC50 of 4100 nM.

`Nc1nc2cc(-c3ccc(F)nc3)ccc2c2[nH]c(CN3CCCC3=O)nc12` [Compound 330, 1-[[4-amino-7-(6-fluoropyridin-3-yl)-1H-imidazo[4,5-c]quinolin-2-yl]methyl]pyrrolidin-2-one] showed an EC50 of 1600 nM.

On to `Nc1nc2cc(-c3cncc(F)c3)ccc2c2[nH]c(CN3CCCC3=O)nc12` [Compound 331, 1-[[4-amino-7-(5-fluoropyridin-3-yl)-1H-imidazo[4,5-c]quinolin-2-yl]methyl]pyrrolidin-2-one], for which the EC50 amounted to 3200 nM.

In turn, `Nc1nc2cc(C3CCCCCC3)ccc2c2[nH]c(CN3CCCC3=O)nc12` [Compound 332, 1-[(4-amino-7-cycloheptyl-1H-imidazo[4,5-c]quinolin-2-yl)methyl]pyrrolidin-2-one] gave an EC50 of 3300 nM. This EC50 and that of the molecule before are within 1.5-fold of each other.

Take `Nc1nc2cc(-c3cccnc3)ccc2c2[nH]c(CN3CC(c4ccccc4)CC3=O)nc12` (stereo not drawn) [Compound 333, 1-[(4-amino-7-pyridin-3-yl-1H-imidazo[4,5-c]quinolin-2-yl)methyl]-4-phenylpyrrolidin-2-one]: the EC50 came out at 1900 nM. This EC50 is about 1.7-fold lower than that of the molecule before.

As to `COC(=O)CCCn1c(CN2CCCC2=O)nc2c(N)nc3ccccc3c21` [Compound 335], it took 6500 nM to reach a half-maximal effect (EC50). This EC50 lies about 3.4-fold higher than the previous one.

In turn, `CN(C)C(=O)CCCn1c(CN2CCCC2=O)nc2c(N)nc3cc(Cl)ccc3c21` [Compound 337] returned an EC50 of 80000 nM.

For the molecule `CN(C)C(=O)CCCn1c(CN2CCCC2=O)nc2c(N)nc3cc(-c4cccnc4)ccc3c21` [Compound 340], the EC50 came out at 50000 nM. This EC50 is about 1.6-fold lower than that of the molecule before.

`COC(=O)CCCn1c(CN2CCCC2=O)nc2c(N)nc3cc(Br)ccc3c21` [Compound 341] registered an EC50 of 2100 nM. Against the preceding molecule, the EC50 is about 24-fold lower.

For `COC(=O)CCCn1c(CN2CCCC2=O)nc2c(N)nc3cc(-c4cccnc4)ccc3c21` [Compound 342], the EC50 is 3300 nM. This EC50 lies about 1.6-fold higher than the previous one.

As to `Nc1nc2ccccc2c2[nH]c(CN3CCCCC3=O)nc12` [Compound 346], a half-maximal effect (EC50) was put at 17300 nM.

Take `COC(=O)CCCn1c(CN2CCCCC2=O)nc2c(N)nc3ccccc3c21` [Compound 347]: the EC50 came out at 41000 nM.

For the molecule `CN(C)Cc1nc2c(N)nc3cc(-c4cc[nH]n4)ccc3c2[nH]1` [Compound 348], a half-maximal response (EC50) required 890 nM.

`CCN(C)Cc1nc2c(N)nc3cc(-c4cc[nH]n4)ccc3c2[nH]1` [Compound 349] came in with an EC50 of 600 nM.

As for `Nc1nc2cc(-n3cccn3)ccc2c2[nH]c(CN3C[C@@H](c4ccccc4)CC3=O)nc12` [Compound 357], the EC50 was 640 nM.

In turn, `Nc1nc2cc(-n3cccn3)ccc2c2[nH]c(CN3C[C@H](c4ccccc4)CC3=O)nc12` [Compound 358] displayed an EC50 of 630 nM.

The molecule `Nc1nc2cc(-c3cc[nH]n3)ccc2c2[nH]c(CN3C(=O)OCC3c3ccccc3)nc12` (stereo not drawn) [Compound 363] came in with an EC50 of 5800 nM.

On to `Nc1nc2cc(-c3cc[nH]n3)ccc2c2[nH]c(CN3CCOC3=O)nc12` [Compound 365], for which the EC50 was 5000 nM.

`CN1CCN(Cc2nc3c(N)nc4cc(-c5cc[nH]n5)ccc4c3[nH]2)C1=O` [Compound 368] displayed an EC50 of 3900 nM.

For `CN(Cc1nc2c(N)nc3cc(-c4cc[nH]n4)ccc3c2[nH]1)C(=O)CO` [Compound 370], the EC50 is 4800 nM.

In turn, `CN(Cc1nc2c(N)nc3cc(-c4cc[nH]n4)ccc3c2[nH]1)C(=O)CN` [Compound 372] came in with an EC50 of 8300 nM.

`CN(C)C(=O)N(C)Cc1nc2c(N)nc3cc(-c4cc[nH]n4)ccc3c2[nH]1` [Compound 375] yielded an EC50 of 2400 nM.

The molecule `CN(Cc1nc2c(N)nc3cc(-c4cc[nH]n4)ccc3c2[nH]1)C(=O)c1ccccc1` [Compound 376] had an EC50 of 3600 nM.

As for `CN(Cc1nc2c(N)nc3cc(-c4cc[nH]n4)ccc3c2[nH]1)C(=O)c1nccs1` [Compound 377], the EC50 worked out at 4300 nM.

As to `CCN(C=O)Cc1nc2c(N)nc3cc(-c4cc[nH]n4)ccc3c2[nH]1` [Compound 379], the response was half-maximal at 2000 nM (EC50).

For `CCN(Cc1nc2c(N)nc3cc(-c4cc[nH]n4)ccc3c2[nH]1)C(=O)CN(C)C` [Compound 383], the EC50 stood at 3600 nM.

`CCN(Cc1nc2c(N)nc3cc(-c4ccn(C)n4)ccc3c2[nH]1)C(=O)OC(C)(C)C` [Compound 393]: the response was half-maximal at 7110 nM (EC50).

`CCN(Cc1nc2c(N)nc3cc(-c4ccsc4)ccc3c2[nH]1)C(=O)OC(C)(C)C` [Compound 397] returned an EC50 of 1050 nM.

Take `CCNCc1nc2c(N)nc3cc(-n4cccn4)ccc3c2[nH]1` [Compound 398]: a half-maximal response (EC50) required 1220 nM.

Take `CCNCc1nc2c(N)nc3cc(-c4cccs4)ccc3c2[nH]1` [Compound 399]: the EC50 is 1060 nM.

The molecule `CCNCc1nc2c(N)nc3cc(-c4ccsc4)ccc3c2[nH]1` [Compound 400] registered an EC50 of 1790 nM.

For `CNCc1nc2c(N)nc3cc(-c4cc[nH]n4)ccc3c2[nH]1` [Compound 401], the EC50 was determined as 1230 nM. The EC50 values of the last two molecules are within 1.5-fold of each other.

Turning to `CNCc1nc2c(N)nc3cc(-n4cccn4)ccc3c2[nH]1` [Compound 402], a half-maximal response (EC50) required 1310 nM. The EC50 values of the last two molecules are within 1.5-fold of each other.

For the molecule `COc1ccc(Cn2c(CN3CCN(C)C3=O)nc3c(N)nc4cc(-c5cc[nH]n5)ccc4c32)cc1` [Compound 403], the midpoint of the response, the EC50, lay at 3660 nM.

`COc1ccc(Cn2c(CN3C(=O)OCC3COCc3ccccc3)nc3c(N)nc4cc(-c5cc[nH]n5)ccc4c32)cc1` (stereo not drawn) [Compound 404]: the EC50 amounted to 2500 nM. The EC50 values of the last two molecules are within 1.5-fold of each other.

`COC(=O)N(C)Cc1nc2c(N)nc3cc(-c4cc[nH]n4)ccc3c2[nH]1` [Compound 405] came in with an EC50 of 2190 nM.

In the case of `CCN(Cc1nc2c(N)nc3cc(-c4cc[nH]n4)ccc3c2[nH]1)C(=O)OC` [Compound 406], the EC50 was found to be 1370 nM.

Turning to `Nc1nc2cc(-c3cc[nH]n3)ccc2c2[nH]c(CN3C[C@@H](c4ccccc4)CC3=O)nc12` [Compound 407], the midpoint of the response, the EC50, lay at 6550 nM. Against the preceding molecule, the EC50 is about 4.8-fold higher.

`Nc1nc2cc(-c3cc[nH]n3)ccc2c2[nH]c(CN3C[C@H](c4ccccc4)CC3=O)nc12` [Compound 408] displayed an EC50 of 5230 nM. This EC50 and that of the molecule before are within 1.5-fold of each other.

For `COc1ccc(Cn2c(CN3C(=O)OCC3c3ccccc3)nc3c(N)nc4cc(-c5cc[nH]n5)ccc4c32)cc1` (stereo not drawn) [Compound 409], a half-maximal effect (EC50) was put at 2360 nM.

As for `COc1ccc(Cn2c(Cn3cnccc3=O)nc3c(N)nc4cc(-c5cc[nH]n5)ccc4c32)cc1` [Compound 414], the EC50 is 3830 nM. Compared with the last molecule, the EC50 is about 1.6-fold higher.

Regarding `CCN(Cc1nc2c(N)nc3cc(-c4cc[nH]n4)ccc3c2[nH]1)C(=O)C1COC1` [Compound 417], the response was half-maximal at 7400 nM (EC50).

Regarding `CCN(Cc1nc2c(N)nc3cc(-c4ccsc4)ccc3c2[nH]1)C(C)=O` [Compound 419, N-((4-Amino-7-(thiophen-3-yl)-1H-imidazo[4,5-c]quinolin-2-yl)methyl)-N-ethylacetamide], the EC50 is 910 nM.

The record behind these values is patent US12351580B2, “NLRP3 modulators” (Innate Tumor Immunity, Inc., priority 2017, dated 2025).
